# Patent publication US20190021989A1, “GALENIC FORMULATION COMPRISING A TOPICAL DRUG” (NOVARTIS AG, priority 2015, published 2019)
# Biological target: T1, TLR7 (Homo sapiens, UniProt Q9NYK1)
# T1 sequence (Q9NYK1 27-1049): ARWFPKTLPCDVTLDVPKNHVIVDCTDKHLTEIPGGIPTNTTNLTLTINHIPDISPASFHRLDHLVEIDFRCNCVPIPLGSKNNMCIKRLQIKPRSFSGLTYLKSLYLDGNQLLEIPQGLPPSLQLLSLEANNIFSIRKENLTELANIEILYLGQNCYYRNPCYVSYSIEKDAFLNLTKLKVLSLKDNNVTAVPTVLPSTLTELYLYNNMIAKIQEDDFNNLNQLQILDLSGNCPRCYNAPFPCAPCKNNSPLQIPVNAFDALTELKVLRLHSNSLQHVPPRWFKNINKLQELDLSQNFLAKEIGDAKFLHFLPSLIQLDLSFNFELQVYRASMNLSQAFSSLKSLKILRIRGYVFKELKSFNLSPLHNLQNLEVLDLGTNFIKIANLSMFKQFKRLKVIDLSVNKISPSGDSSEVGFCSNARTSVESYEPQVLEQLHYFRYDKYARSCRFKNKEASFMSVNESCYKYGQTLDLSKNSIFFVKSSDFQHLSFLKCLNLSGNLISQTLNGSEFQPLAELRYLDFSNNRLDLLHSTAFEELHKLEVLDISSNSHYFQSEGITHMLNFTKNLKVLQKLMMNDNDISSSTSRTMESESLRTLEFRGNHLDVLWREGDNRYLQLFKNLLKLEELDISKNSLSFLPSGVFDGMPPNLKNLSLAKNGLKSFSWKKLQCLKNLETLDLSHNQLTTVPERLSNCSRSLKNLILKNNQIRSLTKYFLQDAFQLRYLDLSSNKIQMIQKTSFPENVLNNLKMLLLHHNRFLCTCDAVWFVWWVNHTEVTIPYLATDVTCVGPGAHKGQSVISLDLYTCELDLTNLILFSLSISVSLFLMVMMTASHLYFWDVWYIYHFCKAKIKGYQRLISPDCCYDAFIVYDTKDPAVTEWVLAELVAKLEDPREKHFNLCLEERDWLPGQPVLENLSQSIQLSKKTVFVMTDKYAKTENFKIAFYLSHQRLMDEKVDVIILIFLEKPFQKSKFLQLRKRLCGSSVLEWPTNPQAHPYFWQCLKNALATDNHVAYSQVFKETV
# Test: TLR7 agonist potency compared with Aldara
# Settings: more potent than Aldara
smiles,measurement,value
Cc1ccc2c(c1)nc(N)c1ncc(CCc3ccc(OCCC(C)C)cc3C)cc12 [compound of formula (II)],TLR7 agonist potency relative to Aldara,about 100 times
